Measurements reported in ChEMBL document CHEMBL5726672, “Morpholin-pyridine derivatives” (2017).

Target: Trace amine-associated receptor 1 (Mus musculus, UniProt Q923Y8)
Assay: Radioligand Binding Assay : HEK-293 cells stably expressing mouse TAAR1 were maintained at 37° C. and 5% CO2 in DMEM high glucose medium, containing fetal calf serum (10%, heat inactivated for 30 min at 56° C.), penicillin/streptomycin (1%), and 375 μg/ml geneticin (Gibco). Cells were released from culture flasks using trypsin/EDTA, harvested, washed twice with ice-cold PBS (without Ca2+ and Mg2+), pelleted at 1,000 rpm for 5 min at 4° C., frozen and stored at −80° C. Frozen pellets were suspended in 20 ml HEPES-NaOH (20 mM, pH 7.4) containing 10 mM EDTA and homogenized with a Polytron (PT 6000, Kinematica) at 14′000 rpm for 20 s. The homogenate was centrifuged at 48,000×g for 30 min at 4° C. Subsequently, the supernatant was removed and discarded, and the pellet resuspended in 20 ml HEPES-NaOH (20 mM, pH 7.4) containing 0.1 mM EDTA using the Polytron (20 s at 14′000 rpm). This procedure was repeated and the final pellet resuspended in HEPES-NaOH containing 0.1 mM EDTA and homogenized using the Polytron. Typically, aliquots of 2 ml membrane portions were stored at −80° C. With each new membrane batch the dissociation constant (Kd) was determined via a saturation curve.

Chain of Trace amine-associated receptor 1 (Q923Y8 whole entry): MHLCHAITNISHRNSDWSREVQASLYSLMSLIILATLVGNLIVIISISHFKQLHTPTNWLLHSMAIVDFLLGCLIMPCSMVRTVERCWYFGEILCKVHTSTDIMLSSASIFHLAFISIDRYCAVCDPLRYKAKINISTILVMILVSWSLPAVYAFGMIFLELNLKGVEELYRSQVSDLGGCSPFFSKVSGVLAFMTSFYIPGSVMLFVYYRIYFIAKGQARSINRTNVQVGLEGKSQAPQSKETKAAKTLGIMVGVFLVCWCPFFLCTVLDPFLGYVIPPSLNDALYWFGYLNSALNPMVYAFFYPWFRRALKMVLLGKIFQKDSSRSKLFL

## CCCc1n[nH]c(C(=O)Nc2ccc(C3CNCCO3)nc2)c1Cl (racemic)
  Ki: 5.6 nM
